Assay results taken from the NIST ThermoML archive (doi:10.1021/acs.jced.5b00537).
± gives the expanded uncertainty stated by the source.

Test: xn = mol fraction of the nth substance listed
Details: 100 kPa, Liquid; for viscosity: Cone and plate viscometry; for mass density: Vibrating tube method

Compound: CCC(C)(C)O [2-methylbutan-2-ol] + CC(C)CO
- viscosity (293.15 K, x1 = 0.101): 4.697 ± 0.2 mPa·s
- viscosity (293.15 K, x1 = 0.2): 5.166 ± 0.2 mPa·s
- viscosity (293.15 K, x1 = 0.301): 5.487 ± 0.2 mPa·s
- viscosity (293.15 K, x1 = 0.4): 5.819 ± 0.2 mPa·s
- viscosity (293.15 K, x1 = 0.5): 6.094 ± 0.2 mPa·s
- viscosity (293.15 K, x1 = 0.599): 6.075 ± 0.2 mPa·s
- viscosity (293.15 K, x1 = 0.7): 5.951 ± 0.2 mPa·s
- viscosity (293.15 K, x1 = 0.8): 5.518 ± 0.2 mPa·s
- viscosity (293.15 K, x1 = 0.9): 5.081 ± 0.2 mPa·s
- viscosity (293.15 K, x1 = 1): 4.596 ± 0.2 mPa·s
- mass density (293.15 K, x1 = 0.101): 803.58 ± 0.61 kg/m3
- mass density (293.15 K, x1 = 0.2): 805.09 ± 0.61 kg/m3
- mass density (293.15 K, x1 = 0.301): 806.61 ± 0.61 kg/m3
- mass density (293.15 K, x1 = 0.4): 807.99 ± 0.61 kg/m3
- mass density (293.15 K, x1 = 0.5): 809.31 ± 0.61 kg/m3
- mass density (293.15 K, x1 = 0.599): 810.29 ± 0.61 kg/m3
- mass density (293.15 K, x1 = 0.7): 810.83 ± 0.61 kg/m3
- mass density (293.15 K, x1 = 0.8): 810.82 ± 0.61 kg/m3
- mass density (293.15 K, x1 = 0.9): 810.12 ± 0.61 kg/m3
- mass density (293.15 K, x1 = 1): 808.77 ± 0.61 kg/m3
- viscosity (303.15 K, x1 = 0.101): 3.244 ± 0.2 mPa·s
- viscosity (303.15 K, x1 = 0.2): 3.387 ± 0.2 mPa·s
- viscosity (303.15 K, x1 = 0.301): 3.616 ± 0.2 mPa·s
- viscosity (303.15 K, x1 = 0.4): 3.726 ± 0.2 mPa·s
- viscosity (303.15 K, x1 = 0.5): 3.775 ± 0.2 mPa·s
- viscosity (303.15 K, x1 = 0.599): 3.715 ± 0.2 mPa·s
- viscosity (303.15 K, x1 = 0.7): 3.597 ± 0.2 mPa·s
- viscosity (303.15 K, x1 = 0.8): 3.386 ± 0.2 mPa·s
- viscosity (303.15 K, x1 = 0.9): 3.187 ± 0.2 mPa·s
- viscosity (303.15 K, x1 = 1): 2.983 ± 0.2 mPa·s
- mass density (303.15 K, x1 = 0.101): 795.96 ± 0.61 kg/m3
- mass density (303.15 K, x1 = 0.2): 797.22 ± 0.61 kg/m3
- mass density (303.15 K, x1 = 0.301): 798.63 ± 0.61 kg/m3
- mass density (303.15 K, x1 = 0.4): 799.87 ± 0.61 kg/m3
- mass density (303.15 K, x1 = 0.5): 800.87 ± 0.61 kg/m3
- mass density (303.15 K, x1 = 0.599): 801.55 ± 0.61 kg/m3
- mass density (303.15 K, x1 = 0.7): 801.84 ± 0.62 kg/m3
- mass density (303.15 K, x1 = 0.8): 801.61 ± 0.62 kg/m3
- mass density (303.15 K, x1 = 0.9): 800.89 ± 0.62 kg/m3
- mass density (303.15 K, x1 = 1): 799.74 ± 0.62 kg/m3
- viscosity (313.15 K, x1 = 0.101): 2.392 ± 0.2 mPa·s
- viscosity (313.15 K, x1 = 0.2): 2.445 ± 0.2 mPa·s
- viscosity (313.15 K, x1 = 0.301): 2.526 ± 0.2 mPa·s
- viscosity (313.15 K, x1 = 0.4): 2.552 ± 0.2 mPa·s
- viscosity (313.15 K, x1 = 0.5): 2.539 ± 0.2 mPa·s
- viscosity (313.15 K, x1 = 0.599): 2.46 ± 0.2 mPa·s
- viscosity (313.15 K, x1 = 0.7): 2.365 ± 0.2 mPa·s
- viscosity (313.15 K, x1 = 0.8): 2.287 ± 0.2 mPa·s
- viscosity (313.15 K, x1 = 0.9): 2.204 ± 0.2 mPa·s
- viscosity (313.15 K, x1 = 1): 2.078 ± 0.2 mPa·s
- mass density (313.15 K, x1 = 0.101): 788 ± 0.61 kg/m3
- mass density (313.15 K, x1 = 0.2): 789.04 ± 0.61 kg/m3
- mass density (313.15 K, x1 = 0.301): 790.24 ± 0.61 kg/m3
- mass density (313.15 K, x1 = 0.4): 791.21 ± 0.62 kg/m3
- mass density (313.15 K, x1 = 0.5): 791.89 ± 0.62 kg/m3
- mass density (313.15 K, x1 = 0.599): 792.32 ± 0.62 kg/m3
- mass density (313.15 K, x1 = 0.7): 792.36 ± 0.62 kg/m3
- mass density (313.15 K, x1 = 0.8): 792.06 ± 0.62 kg/m3
- mass density (313.15 K, x1 = 0.9): 791.35 ± 0.62 kg/m3
- mass density (313.15 K, x1 = 1): 790.35 ± 0.62 kg/m3
- viscosity (323.15 K, x1 = 0.101): 1.749 ± 0.2 mPa·s
- viscosity (323.15 K, x1 = 0.2): 1.776 ± 0.2 mPa·s
- viscosity (323.15 K, x1 = 0.301): 1.8 ± 0.2 mPa·s
- viscosity (323.15 K, x1 = 0.4): 1.792 ± 0.2 mPa·s
- viscosity (323.15 K, x1 = 0.5): 1.756 ± 0.2 mPa·s
- viscosity (323.15 K, x1 = 0.599): 1.721 ± 0.2 mPa·s
- viscosity (323.15 K, x1 = 0.7): 1.664 ± 0.2 mPa·s
- viscosity (323.15 K, x1 = 0.8): 1.606 ± 0.2 mPa·s
- viscosity (323.15 K, x1 = 0.9): 1.549 ± 0.2 mPa·s
- viscosity (323.15 K, x1 = 1): 1.494 ± 0.2 mPa·s
- mass density (323.15 K, x1 = 0.101): 779.8 ± 0.62 kg/m3
- mass density (323.15 K, x1 = 0.2): 780.62 ± 0.62 kg/m3
- mass density (323.15 K, x1 = 0.301): 781.62 ± 0.62 kg/m3
- mass density (323.15 K, x1 = 0.4): 782.29 ± 0.62 kg/m3
- mass density (323.15 K, x1 = 0.5): 782.77 ± 0.62 kg/m3
- mass density (323.15 K, x1 = 0.599): 782.89 ± 0.62 kg/m3
- mass density (323.15 K, x1 = 0.7): 782.77 ± 0.62 kg/m3
- mass density (323.15 K, x1 = 0.8): 782.3 ± 0.62 kg/m3
- mass density (323.15 K, x1 = 0.9): 781.58 ± 0.62 kg/m3
- mass density (323.15 K, x1 = 1): 780.66 ± 0.62 kg/m3
- viscosity (333.15 K, x1 = 0.101): 1.31 ± 0.2 mPa·s
- viscosity (333.15 K, x1 = 0.2): 1.315 ± 0.2 mPa·s
- viscosity (333.15 K, x1 = 0.301): 1.329 ± 0.2 mPa·s
- viscosity (333.15 K, x1 = 0.4): 1.316 ± 0.2 mPa·s
- viscosity (333.15 K, x1 = 0.5): 1.277 ± 0.2 mPa·s
- viscosity (333.15 K, x1 = 0.599): 1.243 ± 0.2 mPa·s
- viscosity (333.15 K, x1 = 0.7): 1.206 ± 0.2 mPa·s
- viscosity (333.15 K, x1 = 0.8): 1.164 ± 0.2 mPa·s
- viscosity (333.15 K, x1 = 0.9): 1.128 ± 0.2 mPa·s
- viscosity (333.15 K, x1 = 1): 1.093 ± 0.2 mPa·s
- mass density (333.15 K, x1 = 0.101): 771.08 ± 0.62 kg/m3
- mass density (333.15 K, x1 = 0.2): 771.75 ± 0.62 kg/m3
- mass density (333.15 K, x1 = 0.301): 772.36 ± 0.62 kg/m3
- mass density (333.15 K, x1 = 0.4): 772.81 ± 0.62 kg/m3
- mass density (333.15 K, x1 = 0.5): 772.96 ± 0.62 kg/m3
- mass density (333.15 K, x1 = 0.599): 772.93 ± 0.62 kg/m3
- mass density (333.15 K, x1 = 0.7): 772.58 ± 0.62 kg/m3
- mass density (333.15 K, x1 = 0.8): 772.09 ± 0.62 kg/m3
- mass density (333.15 K, x1 = 0.9): 771.38 ± 0.62 kg/m3
- mass density (333.15 K, x1 = 1): 770.4 ± 0.62 kg/m3
- mass density (343.15 K, x1 = 0.101): 762.05 ± 0.62 kg/m3
- mass density (343.15 K, x1 = 0.2): 762.45 ± 0.62 kg/m3
- mass density (343.15 K, x1 = 0.301): 762.79 ± 0.62 kg/m3
- mass density (343.15 K, x1 = 0.4): 762.98 ± 0.62 kg/m3
- mass density (343.15 K, x1 = 0.5): 762.91 ± 0.62 kg/m3
- mass density (343.15 K, x1 = 0.599): 762.66 ± 0.62 kg/m3
- mass density (343.15 K, x1 = 0.7): 762.18 ± 0.62 kg/m3
- mass density (343.15 K, x1 = 0.8): 761.63 ± 0.62 kg/m3
- mass density (343.15 K, x1 = 0.9): 760.84 ± 0.62 kg/m3
- mass density (343.15 K, x1 = 1): 759.8 ± 0.62 kg/m3
- mass density (353.15 K, x1 = 1): 749.13 ± 1 kg/m3
- mass density (363.15 K, x1 = 1): 738.77 ± 1 kg/m3
